Key:
CYP2D6 = CYP2D6 (Homo sapiens, UniProt P10635)
Hb = assay: Pharmacodynamics: Hb oxygen affinity (p50) and clinical measures of hemolysis; format: in vivo
OCT2 = OCT2 (Homo sapiens, UniProt O15244); assay: In vitro transporter studies: OCT2; format: in vitro ADME
OATP1B1 = OATP1B1 (Homo sapiens, UniProt Q9Y6L6); assay: In vitro transporter studies: OATP1B1; format: in vitro ADME
[1] = tested on: sickle cell disease (SCD) patients; assay: HOPE trial: efficacy in sickle cell disease; format: in vivo, human
Protocol: The efficacy and safety of OXBRYTA in sickle cell disease (SCD) was evaluated in HOPE, a randomized, double-blind, placebo-controlled, multicenter trial [NCT 03036813]. In this study, 274 patients were randomized to daily oral administration of OXBRYTA 1,500 mg (N=90), OXBRYTA 900 mg (N=92), or placebo (N=92). Patients were included if they had from 1 to 10 vasoocclusive crisis (VOC) events within 12 months prior to enrollment and baseline hemoglobin (Hb) ≥5.5 to ≤10.5 g/dL. Eligible patients on stable doses of hydroxyurea for at least 90 days were allowed to continue hydroxyurea therapy throughout the study. Randomization was stratified by patients already receiving hydroxyurea (yes, no), geographic region (North America, Europe, Other), and age (12 to <17 years, 18 to 65 years). The trial excluded patients who received red blood cell (RBC) transfusions within 60 days and erythropoietin within 28 days of enrollment, had renal insufficiency, uncontrolled liver disease, were pregnant, or lactating.
The majority of patients had HbSS or HbS/beta^0-thalassemia genotype (90%) and were receiving background hydroxyurea therapy (65%). The median age was 24 years (range: 12 to 64 years); 46 (17%) patients were 12 to <17 years of age. Median baseline Hb was 8.5 g/dL (5.9 to 10.8 g/dL). One hundred and fifteen (42%) had 1 VOC event and 159 (58%) had 2 to 10 events within 12 months prior to enrollment.
Efficacy was based on Hb response rate defined as a Hb increase of >1 g/dL from baseline to Week 24 in patients treated with OXBRYTA 1,500 mg versus placebo. […] No outlier subgroups were observed. The distribution of Hb change from baseline for individual patients completing 24 weeks of treatment with OXBRYTA 1,500 mg or placebo is depicted in FIG. 8.
Additional efficacy evaluation included change in Hb and percent change in indirect bilirubin and percent reticulocyte count from baseline to Week 24 (Table 4).

[2] = PK in patients with HbSC genotype vs HbSS genotype; details: human, in vivo
RasH2 transgenic mice = assay: 26-week carcinogenicity study; format: in vivo, mouse; details: 26-week study; oral doses of 30, 150, or 500 mg/kg/day
pregnant rats = assay: Pre- and postnatal development study in pregnant rats; format: in vivo, rat
Protocol: In a pre- and postnatal development study, voxelotor was administered orally to pregnant rats at 15, 50 and 250 mg/kg/day (gestation day 6 through lactation day 20). Maternal gestational body weights were decreased at 250 mg/kg/day, which continued to the end of lactation.

[3] = tested on: bacterial reverse mutation; assay: Reverse mutation bacterial (Ames) test; format: cell-based
Description: Voxelotor was not genotoxic in the reverse mutation bacterial (Ames) test, rat Comet assay, or rat micronucleus assay.

[4] = Voxelotor in milk of lactating rats; format: in vivo, rat
Description: There are no data on the presence of voxelotor in human milk, the effects on the breastfed child, or the effects on milk production. […] Plasma concentrations of voxelotor in pregnant rats were higher than the concentration in milk. When a drug is present in animal milk, it is likely that the drug will be present in human milk. […] Because of the potential for serious adverse reactions in the breastfed child, including changes in the hematopoietic system, advise patients that breastfeeding is not recommended during treatment with OXBRYTA, and for at least 2 weeks after the last dose.

CYP2C9 = target: T1, CYP2C9 (Homo sapiens, UniProt P11712); assay: Effect of voxelotor on PK of CYP2C9 probe substrate S-warfarin in healthy subjects; format: in vivo
T1 construct: endogenous in cells; host or cells: healthy subjects, in vivo
Protocol: During Period 1, subjects received a single dose of caffeine 100 mg, warfarin sodium 10 mg+vitamin K 10 mg, omeprazole 20 mg, and midazolam hydrochloride 2 mg on Day 1. During Period 2, subjects received voxelotor 900 mg QD on Days 1 and 2 followed by 600 mg QD on Day 3, a single dose of caffeine 100 mg, warfarin sodium 10 mg+vitamin K 10 mg, omeprazole 20 mg, and midazolam hydrochloride 2 mg on Day 4, and voxelotor 600 mg QD on Days 4 through 7.
Whole blood and plasma concentrations of voxelotor and plasma concentrations of caffeine, paraxanthine, S-warfarin, omeprazole, 5-hydroxyomeprazole, midazolam, and 1-hydroxymidazolam were determined using validated assays.

OATP1B1, sequence (Q9Y6L6 whole entry): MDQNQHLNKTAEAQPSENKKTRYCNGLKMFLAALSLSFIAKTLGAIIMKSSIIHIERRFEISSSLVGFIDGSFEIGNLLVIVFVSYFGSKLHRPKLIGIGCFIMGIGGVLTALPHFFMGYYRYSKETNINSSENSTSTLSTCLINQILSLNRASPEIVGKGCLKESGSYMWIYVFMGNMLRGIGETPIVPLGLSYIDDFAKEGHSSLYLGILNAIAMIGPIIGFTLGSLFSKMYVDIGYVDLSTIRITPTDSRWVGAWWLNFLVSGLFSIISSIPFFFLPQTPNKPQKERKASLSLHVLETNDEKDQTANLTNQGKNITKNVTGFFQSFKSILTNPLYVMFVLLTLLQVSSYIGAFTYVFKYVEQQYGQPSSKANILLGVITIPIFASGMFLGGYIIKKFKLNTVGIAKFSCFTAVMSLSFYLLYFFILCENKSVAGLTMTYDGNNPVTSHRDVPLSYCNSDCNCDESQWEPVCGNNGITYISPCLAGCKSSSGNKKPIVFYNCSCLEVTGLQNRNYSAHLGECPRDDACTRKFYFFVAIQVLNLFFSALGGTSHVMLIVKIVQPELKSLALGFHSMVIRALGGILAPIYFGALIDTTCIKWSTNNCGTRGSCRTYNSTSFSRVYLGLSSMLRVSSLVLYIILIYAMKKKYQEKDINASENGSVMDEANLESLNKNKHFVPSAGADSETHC
T1 sequence (P11712 whole entry): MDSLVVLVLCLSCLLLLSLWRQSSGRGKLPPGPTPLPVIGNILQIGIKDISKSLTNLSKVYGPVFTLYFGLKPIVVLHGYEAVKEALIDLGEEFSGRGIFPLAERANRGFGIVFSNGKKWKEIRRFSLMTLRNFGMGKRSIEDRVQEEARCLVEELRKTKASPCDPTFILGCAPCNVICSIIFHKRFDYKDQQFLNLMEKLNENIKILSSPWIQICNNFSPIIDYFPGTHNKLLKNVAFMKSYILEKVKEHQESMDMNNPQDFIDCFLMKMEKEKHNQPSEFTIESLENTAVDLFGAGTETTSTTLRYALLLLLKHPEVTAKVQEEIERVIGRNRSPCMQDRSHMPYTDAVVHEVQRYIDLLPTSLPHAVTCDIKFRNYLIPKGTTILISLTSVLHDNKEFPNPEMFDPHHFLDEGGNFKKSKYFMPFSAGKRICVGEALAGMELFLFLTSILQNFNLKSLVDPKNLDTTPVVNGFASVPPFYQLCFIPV
CYP2D6, sequence (P10635 whole entry): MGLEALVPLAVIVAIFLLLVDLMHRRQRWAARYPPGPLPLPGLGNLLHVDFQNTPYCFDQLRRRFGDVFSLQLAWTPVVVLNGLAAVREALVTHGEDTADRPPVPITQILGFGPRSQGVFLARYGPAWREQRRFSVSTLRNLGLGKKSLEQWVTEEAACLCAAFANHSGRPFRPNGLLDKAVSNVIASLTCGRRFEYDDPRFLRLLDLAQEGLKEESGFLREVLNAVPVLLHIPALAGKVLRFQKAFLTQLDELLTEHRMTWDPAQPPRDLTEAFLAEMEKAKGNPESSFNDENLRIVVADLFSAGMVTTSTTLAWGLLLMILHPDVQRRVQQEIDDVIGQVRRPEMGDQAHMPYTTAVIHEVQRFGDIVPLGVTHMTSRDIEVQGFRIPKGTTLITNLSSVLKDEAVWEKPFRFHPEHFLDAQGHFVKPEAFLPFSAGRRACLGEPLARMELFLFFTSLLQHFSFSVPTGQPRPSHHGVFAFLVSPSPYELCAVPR
OCT2, sequence (O15244 whole entry): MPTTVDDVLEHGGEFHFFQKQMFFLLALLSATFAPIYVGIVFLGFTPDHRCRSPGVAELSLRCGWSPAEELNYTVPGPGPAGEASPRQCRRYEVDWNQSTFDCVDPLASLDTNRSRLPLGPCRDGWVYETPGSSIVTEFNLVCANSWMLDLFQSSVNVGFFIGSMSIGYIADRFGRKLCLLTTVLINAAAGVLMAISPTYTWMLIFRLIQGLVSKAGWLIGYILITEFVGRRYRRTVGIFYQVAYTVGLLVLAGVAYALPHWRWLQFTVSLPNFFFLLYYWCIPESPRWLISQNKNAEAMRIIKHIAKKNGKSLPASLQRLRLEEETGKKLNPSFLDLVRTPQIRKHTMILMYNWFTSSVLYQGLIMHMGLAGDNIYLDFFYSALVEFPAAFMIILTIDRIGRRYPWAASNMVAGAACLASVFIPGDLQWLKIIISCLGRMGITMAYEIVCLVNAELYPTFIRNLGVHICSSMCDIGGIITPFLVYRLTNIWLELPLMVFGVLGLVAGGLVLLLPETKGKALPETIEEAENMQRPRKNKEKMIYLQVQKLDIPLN

For `CC(C)n1nccc1-c1ncccc1COc1cccc(O)c1C=O` [voxelotor, 2-hydroxy-6-((2-(1-isopropyl-1H-pyrazol-5-yl)pyridin-3-yl)methoxy)benzaldehyde], the “inhibition of CYP2D6 in vivo” value (CYP2D6) was “not”, the “clinical measures of hemolysis (indirect bilirubin and % reticulocytes)” value (Hb; in vivo) was “dose-dependent reduction” and the “Hb oxygen affinity as determined by the change in p50” value (Hb; linearly correlated with voxelotor exposure) was “dose-dependent increase in Hb oxygen affinity”. The “inhibition of OCT2” value (OCT2) was “not an inhibitor”, the “inhibition of OATP1B1” value (OATP1B1) was “not an inhibitor” and the “substrate of OATP1B1” value (OATP1B1) was “not a substrate”. The “Hemoglobin, adjusted mean change from baseline to Week 24” value ([1]; 1,500 mg QD (N = 90)) was 1.14 g/dL, the “Indirect Bilirubin, adjusted mean percent change from baseline to Week 24” value ([1]; 1,500 mg QD (N = 90)) was −29.08% and the “Percent Reticulocyte Count, adjusted mean percent change from baseline to Week 24” value ([1]; 1,500 mg QD (N = 90)) was −19.93%. For the same molecule, the “Hb response rate (Hb increase of >1 g/dL from baseline to Week 24)” value ([1]; 1,500 mg daily oral, 46/90, placebo 6.5%) was 51.1%, the “steady state plasma AUC higher in HbSC vs HbSS genotype patients” value [2] was 23% and the “steady state plasma Cmax higher in HbSC vs HbSS genotype patients” value [2] was 15%. The “steady state whole blood AUC higher in HbSC (n=11) vs HbSS (n=220) genotype patients” value [2] was 50%, the “steady state whole blood Cmax higher in HbSC vs HbSS genotype patients” value [2] was 45% and the carcinogenicity (RasH2 transgenic mice) was “not carcinogenic”. The findings in offspring (pregnant rats; maternal dose 250 mg/kg/day, throughout lactation, weaning and maturation) was “reduced survival and reduced body weights”, the “maternal gestational body weights” value (pregnant rats; pregnant rats, 250 mg/kg/day oral, gestation day 6 through lactation day 20) was “decreased” and the “exposure at 250 mg/kg/day relative to exposure in patients at the recommended dose” value (pregnant rats; rats, maternal dose 250 mg/kg/day) was “approximately 2.8 times”. The genotoxicity [3] was “not genotoxic”, the presence in milk [4] was “detected in milk” and the “effect of voxelotor on PK of CYP2C9 probe substrate (S-warfarin)” value (CYP2C9; healthy subjects, multiple doses of voxelotor 900/600 mg QD) was “no clinically meaningful effect”. The “inhibition of CYP2C9 in vivo” value (CYP2C9; human, in vivo) was “not”.

Source: patent US20230015823A1, “METHODS OF ADMINISTERING VOXELOTOR” (Global Blood Therapeutics, Inc., priority 2019, published 2023)
